# Experimental data taken from ChEMBL document CHEMBL1144624, “1,2,3-Triazolylalkylribitol derivatives as nucleoside hydrolase inhibitors” (Bioorg Med Chem Lett, 2007).
# pKi: −log10 of the molar value.
# Target: T1, IAG-nucleoside hydrolase (Trypanosoma vivax, UniProt Q9GPQ4)
# T1 sequence (Q9GPQ4 whole entry): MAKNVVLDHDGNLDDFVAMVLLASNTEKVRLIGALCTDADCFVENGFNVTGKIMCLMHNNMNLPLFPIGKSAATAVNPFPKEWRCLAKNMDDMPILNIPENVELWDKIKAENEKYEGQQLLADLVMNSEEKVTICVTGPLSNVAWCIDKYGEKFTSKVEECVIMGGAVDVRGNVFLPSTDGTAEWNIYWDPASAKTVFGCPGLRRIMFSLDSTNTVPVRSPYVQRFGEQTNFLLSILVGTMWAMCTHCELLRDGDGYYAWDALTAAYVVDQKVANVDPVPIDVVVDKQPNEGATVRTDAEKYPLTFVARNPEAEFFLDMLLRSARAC
# Assay: Inhibition of Trypanosoma vivax IAG-nucleoside hydrolase
row,Structure (SMILES),pKi
1,OC[C@H]1O[C@@H](CCn2cc(-c3ccccn3)nn2)[C@H](O)[C@@H]1O,4.64
2,OC[C@H]1O[C@@H](CCn2cc(-c3ccccc3)nn2)[C@H](O)[C@@H]1O,4.68
3,OC[C@H]1O[C@@H](CCn2nncc2-c2ccccc2)[C@H](O)[C@@H]1O,3.17
4,Cc1nnn(C[C@@H]2O[C@H](CO)[C@@H](O)[C@H]2O)c1-c1ccccc1,3.28
5,Cc1c(-c2ccccc2)nnn1C[C@@H]1O[C@H](CO)[C@@H](O)[C@H]1O,4.06
6,CCc1nnn(CC[C@@H]2O[C@H](CO)[C@@H](O)[C@H]2O)c1CC,4.20
7,[N-]=[N+]=NCC[C@@H]1O[C@H](CO)[C@@H](O)[C@H]1O,2.25
8,Cc1c(-c2ccccc2)nnn1CC[C@@H]1O[C@H](CO)[C@@H](O)[C@H]1O,5.64
9,Cc1nnn(CC[C@@H]2O[C@H](CO)[C@@H](O)[C@H]2O)c1-c1ccccc1,4.49
